Where two headings read alike, the source gives them in different places.
Tests used:
hepatic LDLR protein = assay: First efficacy study: hepatic LDLR protein (Western blotting); assay type: in vivo, mouse; conditions: day 28
From the text: (§1) Animal experiments were approved by the governmental central committee on animal experiments (AVD5010020172064) and TNO’s animal welfare body (TNO-471 and TNO-482). Female APOE∗3-Leiden.CETP transgenic mice (11–16 weeks of age) were bred at the animal facility of TNO-InnoSer (Leiden, The Netherlands). Female animals were used in this study as they are more responsive to dietary cholesterol and fat than males and therefore typically develop atherosclerosis more rapidly than male APOE∗3-Leiden and APOE∗3-Leiden.CETP mice on cholesterol-containing diets ([33], [34]). […] Body weight, food intake, and clinical signs of behavior were monitored throughout the studies. […]
(§2) Treatment times were around 8:00 am and 4:00 pm each day. Throughout the in-life phase of the study, body weight and food intake (per cage) were measured at regular predetermined intervals while blood samples were collected every 7 days. […] Throughout the study, plasma cholesterol, triglycerides, HDL-C, lipoprotein profiles, PCSK9 expression levels, aspartate transaminase levels (AST), and alanine transaminase levels (ALT) were measured as described below.
The transcript levels of select genes in the liver tissue of mice treated with either vehicle or NYX-PCSK9i were analyzed. […] Differential transcriptional activity was calculated using the 2^–ΔΔCt method.

[1] = Pharmacokinetic study, single dose PO/SC/IV; assay type: in vivo, female C57BL/6 mice; conditions: female, C57BL/6, mouse, plasma; for AUC(0-inf): read-out: AUC Infinity; for MRT inf: read-out: MRT Infinity
Experimental: Pharmacokinetic study protocols were reviewed and approved by the Institutional Animal Care and Use Committee of ChemPartner (Shanghai, China) under ethics A998HL0119. Female C57BL/6 mice aged 10–14 weeks (18–21 g) were purchased from Jihui Laboratory Animal Co. Ltd. (Shanghai, China) and were given ad libitum access to water and food throughout the in-life phase of the studies. […] At designated timepoints (t = 0.083, 0.25, 0.5, 1, 2, 4, 8, and 24 h), the animals were manually restrained, and 110 μl of blood per timepoint was collected into precooled EDTA-K2 tubes via the facial vein. […] Bioavailability was determined by comparing the plasma exposure levels (AUClast) of NYX-PCSK9i when given orally with plasma exposure levels obtained via the IV route.

[2] = system: plasma PCSK9 protein levels; assay: First efficacy study: plasma total PCSK9 (ELISA); assay type: in vivo, mouse; conditions: 50 mg/kg BID PO, day 28
From the text: as §1, §2
In both studies, blood samples were collected at weekly intervals via tail vein sampling after fasting the mice for 4 h. […] Total plasma cholesterol levels were determined using a Cholesterol CHOD-PAP kit according to the manufacturer’s instructions. […]

PCSK9-LDLR interaction = target: T1, PCSK9-LDLR interaction (Homo sapiens, UniProt Q8NBP7); assay: CircuLex PCSK9-LDLR in vitro binding assay; conditions: in vitro biochemical binding assay; read-out: IC50 against the PCSK9-LDLR interaction
T1 construct: purchased CycLex (Nagano, Japan) CY8150
T1 sequence (Q8NBP7 153-692): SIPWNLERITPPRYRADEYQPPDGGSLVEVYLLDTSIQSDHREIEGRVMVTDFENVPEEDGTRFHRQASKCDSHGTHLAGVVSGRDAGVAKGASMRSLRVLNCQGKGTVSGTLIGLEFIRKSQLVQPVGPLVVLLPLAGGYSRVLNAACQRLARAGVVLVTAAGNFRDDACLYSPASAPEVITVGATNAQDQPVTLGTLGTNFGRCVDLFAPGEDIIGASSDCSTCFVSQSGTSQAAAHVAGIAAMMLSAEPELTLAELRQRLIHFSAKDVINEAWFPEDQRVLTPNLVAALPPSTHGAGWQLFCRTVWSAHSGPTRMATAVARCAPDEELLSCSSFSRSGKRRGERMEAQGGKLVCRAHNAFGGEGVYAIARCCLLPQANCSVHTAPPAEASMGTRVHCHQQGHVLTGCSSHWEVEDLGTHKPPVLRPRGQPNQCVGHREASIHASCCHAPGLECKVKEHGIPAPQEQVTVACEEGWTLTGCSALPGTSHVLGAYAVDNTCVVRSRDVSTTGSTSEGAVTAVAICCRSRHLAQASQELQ
T1 sequence (Q8NBP7 31-152 partner limits assumed): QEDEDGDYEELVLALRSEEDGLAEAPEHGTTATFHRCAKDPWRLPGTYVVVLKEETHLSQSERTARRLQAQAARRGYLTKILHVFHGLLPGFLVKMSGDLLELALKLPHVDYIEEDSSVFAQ
From the text: (§3) Ethics was granted by the Comité de Protection des Personnes Sud Méditerranée (ID: 2020-A00196-33). Studies using human samples abided by the Declaration of Helsinki principles.

[3] = system: Hmgcr, Srebf2, Pcsk9, Ldlr, Mttp transcripts in liver tissue; assay: Hepatic gene transcription (qPCR), day 35; assay type: in vivo, mouse; conditions: 50 mg/kg BID PO, 5 weeks
Experimental: The transcript levels of select genes in the liver tissue of mice treated with either vehicle or NYX-PCSK9i were analyzed. RNA was isolated from liver tissue using an RNA STAT-60 kit as per the manufacturer’s protocol. RNA concentrations were determined using a NanoDrop 2000 spectrophotometer (Thermo Fisher Scientific, Rockford, IL), and up to 2 μg of RNA was used as a template for cDNA synthesis using a High-capacity RNA-to-cDNA kit according to the manufacturer’s instructions. Quantitative PCR was performed with fluorescein amidite-labeled TaqMan® Assay primers and TaqMan® Fast Universal PCR Master Mix using a QuantStudio 6 Flex Real-Time PCR system (Applied Biosystems). DNA was amplified by applying a standard cycle protocol with an annealing temperature of 60°C and 40 cycles of amplification. Differential transcriptional activity was calculated using the 2^–ΔΔCt method.

APOE∗3-Leiden.CETP mice = assay: Second efficacy study (35 days, with atorvastatin): plasma lipids; assay type: in vivo, mouse
From the text: Animal experiments were approved by the governmental central committee on animal experiments (AVD5010020172064) and TNO’s animal welfare body (TNO-471 and TNO-482). Female APOE∗3-Leiden.CETP transgenic mice (11–16 weeks of age) were bred at the animal facility of TNO-InnoSer (Leiden, The Netherlands). Female animals were used in this study as they are more responsive to dietary cholesterol and fat than males and therefore typically develop atherosclerosis more rapidly than male APOE∗3-Leiden and APOE∗3-Leiden.CETP mice on cholesterol-containing diets ([33], [34]). Although measurements of atherosclerosis were not included as part of the present study, females were used with the prospect in mind that atherosclerosis studies will follow. The mice were housed under standard conditions that included 12 h light-dark cycles and access to a WTD and sterilized tap water ad libitum. Body weight, food intake, and clinical signs of behavior were monitored throughout the studies. […] Time t = 0 (weeks) was designated as the time at which mice were matched into groups after the 3-week run-in period in each efficacy study.
In both studies, blood samples were collected at weekly intervals via tail vein sampling after fasting the mice for 4 h. Blood samples were centrifugated (4500 g at 4°C), and the plasma was collected for the following analyses. Total plasma cholesterol levels were determined using a Cholesterol CHOD-PAP kit according to the manufacturer’s instructions. Plasma HDL-C levels were determined by first precipitating apoB-containing lipids using PEG 6000/glycine and then utilizing the Cholesterol CHOD-PAP kit ([35]). Non-HDL-C levels were determined by subtracting HDL-C levels from total cholesterol levels ([32]). Group-pooled lipoprotein profiles were determined by FPLC analysis using an AKTApurifier 10 FPLC system (GE Healthcare, Chicago, IL). Plasma PCSK9 levels were determined using a Mouse PCSK9 Quantikine ELISA kit as per the manufacturer’s protocol. ALT and AST levels of group-pooled samples were measured using the Roche Reflotron Plus System (Mannheim, Germany).

PCSK9-D374Y = target: T2, PCSK9-D374Y (Homo sapiens, UniProt Q8NBP7, D374Y); assay: ex vivo lymphocyte LDLR surface expression assay with recombinant PCSK9-D374Y; assay type: cell-based; conditions: 4 μM, relative to PCSK9 D374Y and vehicle
T2 construct: purchased CycLex (Nagano, Japan); host or cells: added to primary human lymphocytes (PBMCs from a human donor)
T2 sequence (Q8NBP7 153-692 D374Y): as the sequence (Q8NBP7 153-692) above, with D222Y counted along it
T2 sequence (Q8NBP7 31-152 partner limits assumed): as the sequence (Q8NBP7 31-152 partner limits assumed) above
From the text: as §3

[4] = day 0 (baseline), NYX-PCSK9i 50 mg/kg BID PO
[5] = day 14, NYX-PCSK9i 50 mg/kg BID PO
[6] = day 28, NYX-PCSK9i 50 mg/kg BID PO
[7] = day 35, NYX-PCSK9i 50 mg/kg BID PO

**Q.** With `Cc1cn(-c2cc(CN3CCC[C@H](N)C3)cc(NC(=O)c3cc(-c4ccccc4)ccn3)c2)cn1` [NYX-PCSK9i] as the compound, how does the “increase in hepatic LDLR protein levels” value (hepatic LDLR protein; 30 mg/kg BID PO) read?
**A.** 46%

**Q.** And the “increase in hepatic LDLR protein levels” value (hepatic LDLR protein; 50 mg/kg BID PO)?
**A.** 51%

**Q.** And the AUC(0-t) ([1]; iv, 5 mg/kg, 5 mg/kg IV)?
**A.** 2.01 µg·h/mL

**Q.** And the AUC(0-t) ([1]; po, 50 mg/kg, 50 mg/kg PO)?
**A.** ~8.1 µg·h/mL

**Q.** What about the AUC(0-t) ([1]; sc, 50 mg/kg, 50 mg/kg SC) of the same compound?
**A.** 25.5 µg·h/mL

**Q.** What about the clearance ([1]; 5 mg/kg IV) of the same compound?
**A.** 2.29 L/h/kg

**Q.** And the half-life ([1]; 5 mg/kg IV)?
**A.** 7.48 h

**Q.** What about the AUC(0-inf) ([1]; 5 mg/kg IV) of the same compound?
**A.** 2.19 µg·h/mL

**Q.** What about the MRT inf ([1]; 5 mg/kg IV) of the same compound?
**A.** 6.42 h

**Q.** What about the Vd ([1]; 5 mg/kg IV, read-out: Vss) of the same compound?
**A.** 14.7 L/kg

**Q.** And the half-life ([1]; 50 mg/kg PO)?
**A.** 6.29 h

**Q.** What about the AUC(0-inf) ([1]; 50 mg/kg PO) of the same compound?
**A.** 8.7 µg·h/mL

**Q.** And the MRT inf ([1]; 50 mg/kg PO)?
**A.** 7.07 h

**Q.** And the half-life ([1]; 50 mg/kg SC)?
**A.** 9.11 h

**Q.** And the AUC(0-inf) ([1]; 50 mg/kg SC)?
**A.** 30.4 µg·h/mL

**Q.** What about the MRT inf ([1]; 50 mg/kg SC) of the same compound?
**A.** 12.2 h

**Q.** And the bioavailability ([1]; AUClast 50 mg/kg PO vs 5 mg/kg IV)?
**A.** 40%

**Q.** And the “maximal increase in plasma PCSK9 protein levels” value [2]?
**A.** 2 fold

**Q.** What about the IC50 (PCSK9-LDLR interaction) of the same compound?
**A.** 0.323 µM

**Q.** What about the “increase in hepatic transcription of Pcsk9” value [3] of the same compound?
**A.** 61%

**Q.** And the “upregulation of hepatic Srebf2 transcript” value [3]?
**A.** 33%

**Q.** And the “Plasma HDL-cholesterol” value (APOE∗3-Leiden.CETP mice; [4])?
**A.** 0.9 ± 0.1 mmol/L

**Q.** What about the “Plasma non- HDL-cholesterol” value (APOE∗3-Leiden.CETP mice; [4]) of the same compound?
**A.** 14.6 ± 2.5 mmol/L

**Q.** What about the “Plasma triglycerides (mean ± SD)” value (APOE∗3-Leiden.CETP mice; [4]) of the same compound?
**A.** 5.3 ± 1.4 mmol/L

**Q.** What about the “Plasma triglycerides (mean ± SD)” value (APOE∗3-Leiden.CETP mice; day 7, NYX-PCSK9i 50 mg/kg BID PO) of the same compound?
**A.** 8.9 ± 3.3 mmol/L

**Q.** What about the “Plasma HDL-cholesterol” value (APOE∗3-Leiden.CETP mice; [5]) of the same compound?
**A.** 0.7 ± 0.4 mmol/L

**Q.** And the “Plasma non- HDL-cholesterol” value (APOE∗3-Leiden.CETP mice; [5])?
**A.** 12.7 ± 0.6 mmol/L

**Q.** And the “Plasma triglycerides (mean ± SD)” value (APOE∗3-Leiden.CETP mice; [5])?
**A.** 8.6 ± 2.7 mmol/L

**Q.** What about the “Plasma triglycerides (mean ± SD)” value (APOE∗3-Leiden.CETP mice; day 21, NYX-PCSK9i 50 mg/kg BID PO) of the same compound?
**A.** 7.1 ± 1.6 mmol/L

**Q.** And the “Plasma HDL-cholesterol” value (APOE∗3-Leiden.CETP mice; [6])?
**A.** 0.8 ± 0.2 mmol/L

**Q.** What about the “Plasma non- HDL-cholesterol” value (APOE∗3-Leiden.CETP mice; [6]) of the same compound?
**A.** 11.8 ± 2.8 mmol/L

**Q.** What about the “Plasma triglycerides (mean ± SD)” value (APOE∗3-Leiden.CETP mice; [6]) of the same compound?
**A.** 6.0 ± 1.7 mmol/L

**Q.** And the “Plasma HDL-cholesterol” value (APOE∗3-Leiden.CETP mice; [7])?
**A.** 0.7 ± 0.4 mmol/L

**Q.** And the “Plasma non- HDL-cholesterol” value (APOE∗3-Leiden.CETP mice; [7])?
**A.** 12.8 ± 2.8 mmol/L

**Q.** What about the “Plasma triglycerides (mean ± SD)” value (APOE∗3-Leiden.CETP mice; [7]) of the same compound?
**A.** 5.8 ± 1.7 mmol/L

**Q.** And the “LDLR expression levels on surface of human lymphocytes” value (PCSK9-D374Y)?
**A.** large and significant increase in LDLR expression levels

From paper PMC9646673, “A Novel, Orally Bioavailable, Small-Molecule Inhibitor of PCSK9 With Significant Cholesterol-Lowering Properties In Vivo” (Journal of Lipid Research, 2022)
